Counter-ions that a name gives are not always drawn. Like-named read-outs stand apart in the source and are kept apart here.
Tested on: LMP1 expression in Kem I cells
Experiment: microbe, parasite or virus in culture
Format: cell-based, EBV
Conditions: for fold induction at 2.5 µM / fold induction at 1 µM: human gammaherpesvirus 4, 48 h; for Average LMP1 Fold Increase / Replicate 1-LMP1 Fold Increase / Replicate 2-LMP1 Fold Increase: Kem I cells, 48 hours
[1] = read-out: Average LMP1 Fold Increase, Kem I cells, 2.5 uM, 48 hours, average of replicates 1 and 2
[2] = read-out: Replicate 1-LMP1 Fold Increase, Kem I cells, 2.5 uM, 48 hours, fold change in LMP1 transcript vs vehicle
[3] = read-out: Replicate 2-LMP1 Fold Increase, Kem I cells, 2.5 uM, 48 hours, fold change in LMP1 transcript vs vehicle
[4] = 2.5 uM, average of replicates 1 and 2
[5] = 2.5 uM, fold change in LMP1 transcript vs vehicle

SMILES | Average LMP1 Fold Increase [4] | Replicate 1-LMP1 Fold Increase [5] | Replicate 2-LMP1 Fold Increase [5] | other results
CC#CCn1c(N2CCC[C@@H](N)C2)nc2c1c(=O)n(Cc1nc(C)c3ccccc3n1)c(=O)n2C [Linagliptin] | – | – | – | fold induction at 2.5 µM [1]: 0.91; fold induction at 2.5 µM [2]: 1.01; fold induction at 2.5 µM [3]: 0.81
CCN(c1cc(C#CCN2CCOCC2)cc(C(=O)NCc2c(C)cc(C)[nH]c2=O)c1C)[C@H]1CC[C@H](N(C)CCOC)CC1 [EPZ 011989] | – | – | – | fold induction at 1 µM (read-out: Average LMP1 Fold Increase, Kem I cells, 1 uM, 48 hours, average of replicates 1 and 2): 30.5; fold induction at 1 µM (read-out: Replicate 1-LMP1 Fold Increase, Kem I cells, 1 uM, 48 hours, fold change in LMP1 transcript vs vehicle): 4.1; fold induction at 1 µM (read-out: Replicate 2-LMP1 Fold Increase, Kem I cells, 1 uM, 48 hours, fold change in LMP1 transcript vs vehicle): 56.9
O=C(O)c1ccc(N2C(=O)/C(=C\c3ccc(-c4ccc([N+](=O)[O-])cc4)o3)C=C2c2ccccc2)cc1 [4E1RCat] | 0.71 | 0.30 | 1.12 | –
O=C(c1ccc(Nc2nccc(-c3cc4ccccc4s3)n2)cc1)N1CCC(N2CCCC2)CC1 [IKK-16 (IKK Inhibitor VII)] | 0.30 | 0.26 | 0.35 | –
CC(C)CC(=O)Nc1[nH]nc2c1CN(C(=O)C1CCN(C)CC1)C2(C)C [PHA-793887] | – | – | – | fold induction at 2.5 µM [1]: 2.82; fold induction at 2.5 µM [2]: 0.58; fold induction at 2.5 µM [3]: 5.05
COc1cc(-n2c(=S)[nH]c3ccccc3c2=O)c(Cl)cc1Cl [Mdivi-1] | 0.64 | 0.51 | 0.77 | –
COc1ccc(C[C@@H](C)NC[C@H](O)c2ccc(O)c(NC=O)c2)cc1.COc1ccc(C[C@@H](C)NC[C@H](O)c2ccc(O)c(NC=O)c2)cc1.O=C(O)/C=C/C(=O)O [Formoterol Hemifumarate] | 1.83 | 1.71 | 1.96 | –
Fc1cc(F)c2c(c1)[C@H]1C=CC[C@H]1C(c1cccnc1)N2 (mixture of isomers) [Golgicide A] | 0.27 | 0.34 | 0.19 | –
COc1cc(OC2CCN(C)CC2)ccc1Nc1ncc2c(n1)n(C1CCCC1)c(=O)n2C [AZ 3146] | 0.61 | 0.66 | 0.57 | –
NC(=O)C1CCCc2c1[nH]c1ccc(Cl)cc21 (stereo not drawn) [EX 527 (Selisistat)] | 0.81 | 0.24 | 1.38 | –
COc1cc2ncnc(Nc3ccc(Cl)cc3F)c2cc1OC [ZM 306416] | – | – | – | Average LMP1 Fold Increase (dose 2.5 uM, LMP1 transcript by in-well qRT-PCR, average of the two replicates): 0.85 fold; Replicate 1-LMP1 Fold Increase (dose 2.5 uM, LMP1 transcript by in-well qRT-PCR, screen replicate 1): 0.70 fold; Replicate 2-LMP1 Fold Increase (dose 2.5 uM, LMP1 transcript by in-well qRT-PCR, screen replicate 2): 1.00 fold
CC(C)CCNC(=O)[C@H](CC(C)C)NC(=O)[C@H]1O[C@@H]1C(=O)O [Loxistatin Acid (E-64C)] | 0.55 | 0.62 | 0.48 | –
Cn1c(N2CCCCS2(=O)=O)nc(C(=O)NCc2ccc(F)cc2)c(O)c1=O [BMS-707035] | – | – | – | fold induction at 2.5 µM [1]: 43.1; fold induction at 2.5 µM [2]: 18.2; fold induction at 2.5 µM [3]: 68
Cc1ccc(NC(=O)c2ccc(CN3CCN(C)CC3)cc2)cc1Nc1nccc(-c2cccnc2)n1 [Imatinib (STI571)] | 0.42 | 0.60 | 0.25 | –
O=C(Nc1cccc(Nc2ncc(Br)c(NCCc3cnc[nH]3)n2)c1)N1CCCC1 [BX-912] | 0.37 | 0.40 | 0.35 | –
Oc1nc(-c2ccc(C(F)(F)F)cc2)nc2c1CSCC2 [XAV-939] | – | – | – | fold induction at 2.5 µM (read-out: Average LMP1 Fold Increase, Kem I cells, dose 2.5 uM, 48 hours, LMP1 transcript by in-well qRT-PCR, average of the two replicates): 0.73; fold induction at 2.5 µM (read-out: Replicate 1-LMP1 Fold Increase, Kem I cells, dose 2.5 uM, 48 hours, LMP1 transcript by in-well qRT-PCR, screen replicate 1): 0.73; fold induction at 2.5 µM (read-out: Replicate 2-LMP1 Fold Increase, Kem I cells, dose 2.5 uM, 48 hours, LMP1 transcript by in-well qRT-PCR, screen replicate 2): 0.73
O=C(O)c1ccc(Nc2ncc3c(n2)-c2ccc(Cl)cc2C(c2c(F)cccc2F)=NC3)cc1 [MLN8054] | – | – | – | fold induction at 2.5 µM [1]: 0.37; fold induction at 2.5 µM [2]: 0.27; fold induction at 2.5 µM [3]: 0.47
CCOc1nc2cccc(C(=O)O)c2n1Cc1ccc(-c2ccccc2-c2nnn[nH]2)cc1 [Candesartan] | – | – | – | fold induction at 2.5 µM [1]: 0.43; fold induction at 2.5 µM [2]: 0.34; fold induction at 2.5 µM [3]: 0.52
Cc1cnc(-c2cc(N3CCN(C(=O)CCS(C)(=O)=O)CC3)ncc2Cl)c(C)c1 [PF-5274857] | 0.87 | 1.12 | 0.62 | –
Cc1cc([C@@H](C)Nc2ccccc2C(=O)O)c2nc(N3CCOCC3)cc(=O)n2c1 [AZD6482] | 0.22 | 0.06 | 0.37 | –

SMILES | Average LMP1 Fold Increase [4] | Replicate 1-LMP1 Fold Increase [5] | Replicate 2-LMP1 Fold Increase [5] | other results
O=C(O)CCc1ccc(NCc2cccc(Oc3ccccc3)c2)cc1 [GW9508] | 0.48 | 0.52 | 0.45 | –
CNC(=O)c1ccc(N2C(=S)N(c3ccc(C#N)c(C(F)(F)F)c3)C(=O)C2(C)C)cc1F [Enzalutamide (MDV3100)] | 0.96 | 0.88 | 1.05 | –
c1ccc(CNc2nc(NCc3ccccc3)c3ccccc3n2)cc1 [DBeQ] | 0.99 | 0.72 | 1.25 | –
CC(C)(C)c1nc(-c2cccc(NS(=O)(=O)c3c(F)cccc3F)c2F)c(-c2ccnc(N)n2)s1 [Dabrafenib (GSK2118436)] | 0.92 | 0.61 | 1.22 | –
Cc1ccc2c(=O)c3cccc(CC(=O)O)c3oc2c1C [DMXAA (Vadimezan)] | 0.87 | 0.44 | 1.29 | –
CC[C@H](NC(=O)[C@H](C)NC)C(=O)N1C[C@@H](O)C[C@H]1Cc1c(-c2[nH]c3cc(F)ccc3c2C[C@@H]2C[C@H](O)CN2C(=O)[C@H](CC)NC(=O)[C@H](C)NC)[nH]c2cc(F)ccc12 [Birinapant] | – | – | – | fold induction at 2.5 µM [1]: 1.03; fold induction at 2.5 µM [2]: 1.05; fold induction at 2.5 µM [3]: 1.02
Oc1c2ccccc2c2c3c(cccc13)N=N2 [SP600125] | – | – | – | fold induction at 2.5 µM [1]: 0.6; fold induction at 2.5 µM [2]: 0.67; fold induction at 2.5 µM [3]: 0.53
C=CC(=O)Nc1cccc(Nc2nc(Nc3ccc(Oc4ccnc(C(=O)NC)c4)cc3)ncc2F)c1 [CNX-774] | 0.62 | 0.51 | 0.73 | –
COc1ccccc1Oc1c(NS(=O)(=O)c2ccc(C(C)(C)C)cc2)nc(-c2ncccn2)nc1OCCO [Bosentan Hydrate] | – | – | – | fold induction at 2.5 µM [1]: 0.81; fold induction at 2.5 µM [2]: 1.22; fold induction at 2.5 µM [3]: 0.4
O=C(c1ccc(F)cc1)N1CCC[C@H](c2nc(-c3ccc(F)cc3)no2)C1 [ADX-47273] | 0.58 | 0.81 | 0.35 | –
COc1ccc(COc2ccc(Cc3cnc(N)nc3N)cc2OC)cc1 [GW2580] | 0.49 | 0.50 | 0.48 | –
Cc1ccc(C(=O)N(CCCN)[C@@H](c2oc3cc(Cl)ccc3c(=O)c2Cc2ccccc2)C(C)C)cc1 [SB743921] | 1.76 | 1.10 | 2.41 | –
CN1C2CCCC1CC(NC(=O)c1nn(C)c3ccccc13)C2 (stereo not drawn) [Granisetron HCl] | – | – | – | fold induction at 2.5 µM [1]: 0.25; fold induction at 2.5 µM [2]: 0.25; fold induction at 2.5 µM [3]: 0.24
CNC(=O)c1cc(Oc2ccc(NC(=O)Nc3cc(C(C)(C)C)nn3-c3ccc4ncccc4c3)c(F)c2)ccn1 [DCC-2036 (Rebastinib)] | 0.38 | 0.50 | 0.25 | –
CC1=C(C(=O)Nc2cc3cn[nH]c3cc2F)C(c2ccc(C(F)(F)F)cc2)CC(=O)N1 (stereo not drawn) [GSK429286A] | 0.57 | 0.60 | 0.54 | –
O=C(/C=C\n1cnc(-c2cc(C(F)(F)F)cc(C(F)(F)F)c2)n1)N1CC(F)(F)C1 [KPT-276] | 1.94 | 0.97 | 2.91 | –
CN1C(=O)C(Cc2c[nH]c3ccccc23)NC1=S (stereo not drawn) [Necrostatin-1] | 1.08 | 0.99 | 1.17 | –
COc1cc(Nc2ncc(F)c(Nc3ccc4c(n3)N(COP(=O)(O)O)C(=O)C(C)(C)O4)n2)cc(OC)c1OC [Fostamatinib (R788)] | 0.67 | 0.24 | 1.11 | –
COCCCC/C(=N\OCCN)c1ccc(C(F)(F)F)cc1 [Fluvoxamine maleate] | – | – | – | fold induction at 2.5 µM [1]: 0.67; fold induction at 2.5 µM [2]: 0.97; fold induction at 2.5 µM [3]: 0.37
CC1(C)CCC(c2ccc(Cl)cc2)=C(CN2CCN(c3ccc(C(=O)NS(=O)(=O)c4ccc(N[C@H](CCN5CCOCC5)CSc5ccccc5)c(S(=O)(=O)C(F)(F)F)c4)cc3)CC2)C1 [ABT-263 (Navitoclax)] | 0.27 | 0.21 | 0.33 | –
